Measured values published in patent publication US20260071220A1, “CONJUGATE OF NUCLEOTIDE ANALOG-CONTAINING DOUBLE-STRANDED RNAI ANALOG” (BaseCure Therapeutics LLC, priority 2022, published 2026).
Several values for one entry are separate records, joined by “and”; a condition that tells them apart may be missing. Equal values may be shown once. In the oligonucleotide strings, read from the 5' end, every base follows the letter of its sugar. An asterisk marks phosphorothioate; unmarked linkages are phosphodiester. Other units and linkages are bracketed, terminal groups are in braces. A string of capitals states the bases alone. {D01} = GalNAc ligand D01, attached to sense strand by a phosphodiester bond; m = 2'-O-methyl; f = 2'-fluoro

Key:
AGT protein = assay: In vivo PD experiment of non-human primate cynomolgus monkey (plasma AGT protein); conditions: for plasma AGT protein level after administration/before administration, Average: group average; for plasma AGT protein level after administration/before administration: individual animal
Source text: The downregulation degree of cynomolgus monkey plasma AGT by the sample to be tested was observed through a non-human primate cynomolgus monkey model highly homologous to a human in AGT gene.
2. Experimental materials: cynomolgus monkeys, 1×PBS (phosphate buffer solution), AD-85481 (US2021095290), and a conjugate of the present invention.
10 cynomolgus monkeys with the weight of 2-3 kg were purchased, and the animals were adapted to quarantine for one week after arriving at an animal room.
On Day −6, cynomolgus monkeys were divided into groups at random according to weight data, with 2 cynomolgus monkeys in each group, the AGT protein concentrations in plasmas of all the cynomolgus monkeys were detected after grouping as an experimental data baseline for each group.
Administration was performed on Day 1. Group 1 was dosed with 1×PBS; group 2 was subcutaneously injected with AD-85481 at the dose of 0.3 mpk; group 3 was subcutaneously injected with AD-85481 at the dose of 3 mpk; group 4 was subcutaneously injected with the conjugate 2 of the present invention at the dose of 0.3 mpk; group 5 was subcutaneously injected with the conjugate 2 of the present invention at the dose of 3 mpk. Blood was collected on Day 1, 2, 4, 8, 15, 22, 29, 32, 35, 43, 57, 71 after administration to detect the AGT protein concentration in plasma of each cynomolgus monkey. By comparing the AGT protein concentration in plasma after administration to the AGT protein concentration on Day −6, the relative downregulation proportion of the AGT proteins in each group of animals was obtained.
4. In the table, the data represent AGT gene expression level after administration/AGT gene expression level before administration.

AGT mRNA = assay: Compound activity experiment in Huh7 cell line (transfection, AGT mRNA by qPCR); format: cell-based, human; conditions: Huh7, RNAiMAX transfection, 24 h
Method: 1. Objective: this study aims to evaluate the inhibitory effect of the conjugate described in this patent on a target gene using a Huh7 cell line. The inhibitory activity of the compound on target gene AGT is evaluated based on the EC50 value of the compound as an index.
Huh7 cells were provided by Shanghai WuXi AppTec New Drug Development Co., Ltd. Hub7 cells were cultured in MEM medium containing 10% fetal bovine serum and 1% penicillin streptomycin.
1) On Day 1, a mixed solution of an RNAiMAX transfection reagent and Opti-MEM was prepared as needed in a ratio of RNAiMAX transfection reagent:Opti-MEM=1.5:48.5, and incubated for 15 min at room temperature;
2) For cells in each well, a certain amount of diluted compound was taken and added into an equal amount of RNAiMAX Optim-MEM medium to be mixed well, and then incubated for 15 min;
3) Huh7 cells were taken and washed with DPBS, digested with trypsin, and the density of the cells was adjusted to an appropriate density;
4) The cells were seeded into a 96-well plate at a density of 2,0000 cells/well while adding a mixture of 20 μL Opti-MEM RNAiMax and the compound into the cell culture plate, and the volume of the final medium for each well was 120 μL.
5) The cells were incubated for 24 h in an incubator under the conditions of 5% CO2 and 37° C. […]
The cDNA of the target gene was detected by qPCR. qPCR was carried out in a 384-well plate using GAPDH as an internal reference gene. […]
This method requires the introduction of the internal reference gene GAPDH, as the internal reference gene is expressed in all the cells and its product is necessary for maintaining cell survival; and the expression level or copy number of the genome in cells remains constant and is less affected by environmental factors. After qRT-PCR, the CT value of the internal reference will also be recorded, called Ct (GAPDH), and the CT value of the sample is called Ct (sample).

## Conjugate 2: Double-stranded RNAi analog against AGT, D01 GalNAc ligand on sense strand; sense SEQ ID NO: 6, antisense SEQ ID NO: 2 containing Z (sense mA*mU*fCfCmAfCfAfAmUmGmAmGmAfGmUmAmCmA-{D01}; antisense CUCACAUGUACNCUCAUUGUGGAUGACGA; antisense: chemistry not given here; antisense strand modified, includes nucleotide analog Z, further chemistry not fully specified)
AGT protein; 0.3 mg/kg single s.c., Day 22 vs Day -6
  plasma AGT protein level after administration/before administration, Average: 25.72%
AGT protein; 0.3 mg/kg single s.c., Day 71 vs Day -6
  plasma AGT protein level after administration/before administration, Average: 51.76%
AGT protein; 3 mg/kg single s.c., Day 22 vs Day -6
  plasma AGT protein level after administration/before administration, Average: 2.47%
AGT protein; 3 mg/kg single s.c., Day 71 vs Day -6
  plasma AGT protein level after administration/before administration, Average: 9.88%
AGT protein; 0.3 mg/kg single s.c., Day 22 vs Day -6, 0.3 mg/kg
  plasma AGT protein level after administration/before administration: 28.47% and 22.96%
AGT protein; 0.3 mg/kg single s.c., Day 71 vs Day -6, 0.3 mg/kg
  plasma AGT protein level after administration/before administration: 55.17% and 48.35%
AGT protein; 3 mg/kg single s.c., Day 22 vs Day -6, 3 mg/kg
  plasma AGT protein level after administration/before administration: 0.84% and 4.09%
AGT protein; 3 mg/kg single s.c., Day 71 vs Day -6, 3 mg/kg
  plasma AGT protein level after administration/before administration: 10.84% and 8.92%
AGT mRNA
  Emax (remaining AGT mRNA): 5%
AGT mRNA; AGT mRNA, read-out: Absolute EC50
  EC50: 5.92 pM
AGT mRNA; log of the absolute EC50 (matches nM)
  Log (concentration): −2.228
